A short description of data set [1]: Acute toxicity (LD50) in rats, oral. To be noted: rat, in vivo, 14th day of observation, read-out: DL50. The protocol:
The compounds of the invention are therapeutically useful substances, practically free of acute, subacute or chronic toxic effects. LD50 values, usually exceeding 1 g/kg body weight are measured in mice and in rats after oral and intraperitoneal (i.p.) administration of the compounds of the invention. Only N-diethylaminoethylamino, N'-[(R,S)-2-(2-methoxyphenoxymethyl)-1,3-thiazolidine]-malondiamide and N-β-pyridylmethylamino-N'-[(R,S)-2-(2-methoxy-phenoxy-methyl)-1,3-thiazolidine]-malondiamide show DL50 values of 0.25 and 0.85 g/Kg respectively after oral administration to rats at the 14th day of observation.

For data set [2], the system named is airways hyperreactivity, pulmonary inflation pressure (PIP). The data set can be described thus: Airway hyperreactivity (PIP increase after autacoid challenge) after tobacco smoke exposure. To be noted: compounds: oral 20-60, i.v. 0.25-5, s.c. 2-15 mg/Kg; 6 MPHE 10-50 mg/Kg i.m.; DSCG 20-100 mg/Kg i.m.; salbutamol 0.5 mg/Kg i.v. Format: in vivo, guinea pig (male). How it is done:
In order to show this surprising pharmacological property, the compounds of the invention were tested in a bronchial hyperreactivity animal model recently developed (see Omini C. et al., 23rd Ann. Med: S.E.P.C.R., Athens 20-24th June 1988, Abstract 15S Eur. J. Resp. Dis. in press).
The airways hyperreactivity is measured as abnormal increase of the pulmonary inflation pressure (PIP) caused by the exacerbate bronchconstrictive response that follows to an autocoid challenge after active forced tobacco smoke exposure for a 10 minutes period. The abnormal PIP increase is compared with the PIP increase observed, in the same animal, before tobacco smoke, and after autacoids challenge. Male guinea pigs (400-450 g b.w.) anaesthetized with ethylurethane and pancuronium bromide were used; the recording of PIP is performed in accordance with Konzett and Rossler methods (Naumm. Schiedeberg Arch. Exp. Path/Pharmacol. 195, 71, 1940). To evidentiate such bronchial smooth muscle hyperreactivity suitable autocoids are acetylcholine, histamine, serotonine, bradykinins.
Male guinea pigs (400-450 g) are anaesthetized with ethylurethane (i.p.) and pancuronium bromide (i.v.): the trachea is cannulated and the lungs are ventilated at constant volume by connection with "Rodent respirator" Basile apparatus mod. 7025. The pulmonary inflation pressure (PIP) is measured by connection to a side-warm of the tracheal cannula of a Bell and Howell pressure transducer (mod. P 17570) that is connected to a Beckmann (mod. R 611) dynograph. The right jugular vein is catheterized for i.v. injection of autacoids and drugs. The pharmacological experiment starts with the treatment of the animal with the autocoids (for example acetylcholine by i.v. route in the interval 2.5-10 mcg/kg) in order to induce a reversible bronchoconstruction response, measured by an increase of the pulmonary inflation pressure (PIP). This increase is recorded and it is considered to represent the basal value of the animal bronochoconstrictor response to the challenge with the autocoid.
The animal is then actively exposed for a 10 minutes time period to the tobacco smoke of alighted cigarette (directly inspired by the animal). Afterwards the animal is challenged again with the autocoid, using the dosage previously injected for evokating the basal bronchoconstrictor response. The novel challenge induces an exacerbate bronochoconstrictory response and the airway hyper-reactivity is measured as the differential increase in the PIP after tobacco smoke exposure in respect to the basal value. The challenge may be repeated in the time, (2-3 hours after smoke exposure, too) until reproducible hyper-reactive responses are obtained or at different time from tobacco exposure.
A substance may be administered by i.v., oral, subcutaneous or intramuscular route at different times before tobacco smoke exposure. A compound is considered effective when it is able to prevent almost completely the exacerbate differential increase in the PIP and normalize the BAL cell cytologic pattern at the same dose level.
Differential increases of the pulmonary inflation pressure over the basal value after autacoid challenges, ranging from 150-200% are observed after smoke exposure in the animal control group (i.e. in the absence of any pharmacological treatment).
Drug treatment may be performed using different routes: intravenous, oral, subcutaneous and/or intramuscular; the substances may be administered at different times before smoke exposure and at different dose levels.
Dose related responses have been determined for reference drugs such as 6β-methyl-prednisolone-21-hemisuccinate sodium salt (6MPHE, by i.m. route, 7 hrs. b.s.l.), sodium dichromoglycate (DSCG, by i.m. route, 2 hrs. b.s.e.) and salbutamol (by i.v. route, 20 minutes before smoke exposure); the results reported in table 4, are expressed as % protection from hyperreactive reaction. […]

Regarding `COc1ccccc1OCC1SCCN1C(=O)CC(=O)NCc1cccnc1` (racemic) [Table 5 3, N-β-pyridylmethyl, N'-[(R,S)-2-(2-methoxy-phenoxymethyl)-1,3-thiazolidine]-malondiamide], the LD50 at 336 h in data set [1] amounted to 850 mg/kg. For the same molecule, the “prevention/inhibition of airway hyperreactivity (words)” value in data set [2] is “effective inhibitors of the hyperreactive reaction”.

These data come from patent publication US5206254A, “β-carbonyl-carboxyamides of 1,3-thiazolidines” (Boehringer Mannheim Italia S.p.A., priority 1988, dated 1993).
